Assays:
Human whole blood = test: IRAK4 Whole Blood Assay (IL-6 levels after stimulation with TLR2 agonist lipoteichoic acid); type: cell-based; conditions: 10 μg/mL lipoteichoic acid, 5 hours
Method: Human whole blood containing the anti-coagulant ACD-A was plated in 384-well plate (25 μL/well) and incubated with compounds for 60 minutes at 37° C. in a 5% CO2 incubator. The blood was stimulated with a TLR2 agonist, 10 μg/mL final concentration of lipoteichoic acid (Invivogen, San Diego, CA) in 25 μL RPMI (Gibco) for 5 hours in a 5% CO2 incubator. At the end of the incubation, plates were centrifuged at 2300 rpm for 5 minutes. Supernatants were harvested and analyzed for IL-6 levels by Flow Cytometry beads assay (BD Biosciences, San Jose, CA).

IRAK4 = IRAK4 (Homo sapiens (Human), UniProt Q9NWZ3); test: IRAK4 Inhibition Assay; type: biochemical; conditions: ATP 500 μM; IRAK4 0.6 nM; 60 min room temperature; Caliper LABCHIP 3000
Sequence of IRAK4 (Q9NWZ3 whole entry, species assumed): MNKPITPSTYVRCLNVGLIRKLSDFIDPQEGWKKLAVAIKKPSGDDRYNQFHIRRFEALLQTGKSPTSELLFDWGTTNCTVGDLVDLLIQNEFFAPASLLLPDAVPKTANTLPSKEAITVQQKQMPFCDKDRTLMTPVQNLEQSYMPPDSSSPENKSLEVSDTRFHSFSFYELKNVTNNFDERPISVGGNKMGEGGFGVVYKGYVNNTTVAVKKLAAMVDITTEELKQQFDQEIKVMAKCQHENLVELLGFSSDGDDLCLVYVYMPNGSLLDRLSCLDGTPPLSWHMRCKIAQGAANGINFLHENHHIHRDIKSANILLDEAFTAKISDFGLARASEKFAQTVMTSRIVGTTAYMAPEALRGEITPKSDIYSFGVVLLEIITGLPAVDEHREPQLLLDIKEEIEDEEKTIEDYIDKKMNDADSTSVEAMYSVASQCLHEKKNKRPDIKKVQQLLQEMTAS

| SMILES | EC50 (Human whole blood) [nM] | IC50 (IRAK4) [nM] |
| --- | --- | --- |
| COC(=O)N[C@H]1CC[C@H](NC(=O)c2cnc3ccc(-c4cn[nH]c4)cc3c2NC(C)C)CC1 [Example 25, methyl ((1r,4r)-4-(4-(isopropylamino)-6-(1H-pyrazol-4-yl)quinoline-3-carboxamido)cyclohexyl)carbamate] | 1280 | 3.3 |
| COC(=O)N[C@H]1CC[C@H](NC(=O)c2cnc3ccc(-c4cn[nH]c4)cc3c2NC(C)C)C1 [Example 26, methyl ((1S,3S)-3-(4-(isopropylamino)-6-(1H-pyrazol-4-yl)quinoline-3-carboxamido)cyclopentyl) carbamate] | 1460 | 12.3 |
| CCNc1c(C(=O)NC[C@@H](F)C(C)(C)O)cnc2ccc(-c3cn[nH]c3)cc12 [Example 27, (R)-4-(ethylamino)-N-(2-fluoro-3-hydroxy-3-methylbutyl)-6-(1H-pyrazol-4-yl)quinoline-3-carboxamide] | 2820 | 8.9 |
| CC(C)(O)[C@H](F)CNC(=O)c1cnc2ccc(-c3cn[nH]c3)cc2c1NC1COC1 [Example 34, (R)—N-(2-fluoro-3-hydroxy-3-methylbutyl)-4-(oxetan-3-ylamino)-6-(1H-pyrazol-4-yl)quinoline-3-carboxamide] | 544 | 9.8 |
| CC(O)CCNC(=O)c1cnc2ccc(-c3cn[nH]c3)cc2c1NC(C)C (stereo not shown) [Example 36, N-(3-hydroxybutyl)-4-(isopropylamino)-6-(1H-pyrazol-4-yl)quinoline-3-carboxamide] | 759 | 13.7 |
| CC(C)Nc1c(C(=O)NCCC2(O)CC(F)(F)C2)cnc2ccc(-c3cn[nH]c3)cc12 [Example 42, N-(2-(3,3-difluoro-1-hydroxycyclobutyl)ethyl)-4-(isopropylamino)-6-(1H-pyrazol-4-yl)quinoline-3-carboxamide] | 396 | 2.5 |
| CC(C)Nc1c(C(=O)NCCC(F)(F)F)cnc2ccc(-c3cn[nH]c3)cc12 [Example 43, 4-(isopropylamino)-6-(1H-pyrazol-4-yl)-N-(3,3,3-trifluoropropyl)quinoline-3-carboxamide] | 549 | 14.6 |
| CC(C)Nc1c(C(=O)NCCN2CCOCC2)cnc2ccc(-c3cn[nH]c3)cc12 [Example 44, 4-(isopropylamino)-N-(2-morpholinoethyl)-6-(1H-pyrazol-4-yl)quinoline-3-carboxamide] | 1190 | 9.7 |
| CC(C)Nc1c(C(=O)NCCC(F)F)cnc2ccc(-c3cn[nH]c3)cc12 [Example 45, N-(3,3-difluoropropyl)-4-(isopropylamino)-6-(1H-pyrazol-4-yl)quinoline-3-carboxamide] | 350 | 9.1 |
| CC(=O)N[C@H]1C[C@H](NC(=O)c2cnc3ccc(-c4cn[nH]c4)cc3c2NC(C)C)C1 [Example 46, N-((1r,3r)-3-acetamidocyclobutyl)-4-(isopropylamino)-6-(1H-pyrazol-4-yl)quinoline-3-carboxamide] | 2100 | 6.6 |
| COC(=O)N[C@H]1C[C@H](NC(=O)c2cnc3ccc(-c4cn[nH]c4)cc3c2NC(C)C)C1 [Example 47, methyl ((1r,3r)-3-(4-(isopropylamino)-6-(1H-pyrazol-4-yl)quinoline-3-carboxamido)cyclobutyl)carbamate] | 868 | 9.1 |
| CC(C)Nc1c(C(=O)NCCC2CC2)cnc2ccc(-c3cn[nH]c3)cc12 [Example 51, N-(2-cyclopropylethyl)-4-(isopropylamino)-6-(1H-pyrazol-4-yl)quinoline-3-carboxamide] | 699 | 4.5 |
| Cc1cc2ncc(C(=O)NCCC(C)(C)O)c(NC(C)C)c2cc1-c1cn[nH]c1 [Example 59, N-(3-hydroxy-3-methylbutyl)-4-(isopropylamino)-7-methyl-6-(1H-pyrazol-4-yl)quinoline-3-carboxamide] | 4740 | 16 |
| CC(C)Nc1c(C(=O)NC2CCN(Cc3ccc(F)cc3)CC2)cnc2ccc(-c3cn[nH]c3)cc12 [Example 76, N-(1-(4-fluorobenzyl)piperidin-4-yl)-4-(isopropylamino)-6-(1H-pyrazol-4-yl)quinoline-3-carboxamide] | 1690 | 12.3 |
| CC(=O)N1CCC(NC(=O)c2cnc3ccc(-c4cn[nH]c4)cc3c2NC(C)C)CC1 [Example 77, N-(1-acetylpiperidin-4-yl)-4-(isopropylamino)-6-(1H-pyrazol-4-yl)quinoline-3-carboxamide] | 788 | 9.9 |
| CC(C)Nc1c(C(=O)NC2CCN(Cc3ccncc3)CC2)cnc2ccc(-c3cn[nH]c3)cc12 [Example 78, 4-(isopropylamino)-6-(1H-pyrazol-4-yl)-N-(1-(pyridin-4-ylmethyl)piperidin-4-yl)quinoline-3-carboxamide] | 1360 | 16.8 |

| SMILES | EC50 (Human whole blood) [nM] | IC50 (IRAK4) [nM] |
| --- | --- | --- |
| CC(C)Nc1c(C(=O)NC2CCN(S(C)(=O)=O)CC2)cnc2ccc(-c3cn[nH]c3)cc12 [Example 79, 4-(isopropylamino)-N-(1-(methylsulfonyl)piperidin-4-yl)-6-(1H-pyrazol-4-yl) quinoline-3-carboxamide] | 618 | 5.7 |
| CCOC(=O)N1CCC(NC(=O)c2cnc3ccc(-c4cn[nH]c4)cc3c2NC(C)C)CC1 [Example 80, ethyl 4-(4-(isopropylamino)-6-(1H-pyrazol-4-yl)quinoline-3-carboxamido)piperidine-1-carboxylate] | 1320 | 13 |
| CC(C)Nc1c(C(=O)NC2CCN(C(=O)C3CC3)CC2)cnc2ccc(-c3cn[nH]c3)cc12 [Example 81, N-(1-(cyclopropanecarbonyl)piperidin-4-yl)-4-(isopropylamino)-6-(1H-pyrazol-4-yl)quinoline-3-carboxamide] | 1400 | 11.7 |
| CC(C)Nc1c(C(=O)NC2CCN(C(=O)N3CCOCC3)CC2)cnc2ccc(-c3cn[nH]c3)cc12 [Example 82, 4-(isopropylamino)-N-(1-(morpholine-4-carbonyl)piperidin-4-yl)-6-(1H-pyrazol-4-yl) quinoline-3-carboxamide] | 455 | 9 |
| CC(C)Nc1c(C(=O)NC2CCN(S(=O)(=O)c3cccnc3)CC2)cnc2ccc(-c3cn[nH]c3)cc12 [Example 84, 4-(isopropylamino)-6-(1H-pyrazol-4-yl)-N-(1-(pyridin-3-ylsulfonyl)piperidin-4-yl)quinoline-3-carboxamide] | 1170 | 17.1 |
| CC(C)Nc1c(C(=O)NCC2CCS(=O)(=O)C2)cnc2ccc(-c3cn[nH]c3)cc12 (stereo not shown) [Example 87, N-((1,1-dioxidotetrahydrothiophen-3-yl)methyl)-4-(isopropylamino)-6-(1H-pyrazol-4-yl)quinoline-3-carboxamide] | 458 | 6.8 |
| CC(C)Nc1c(C(=O)NCCS(C)(=O)=O)cnc2ccc(-c3cn[nH]c3)cc12 [Example 88, 4-(isopropylamino)-N-(2-(methylsulfonyl)ethyl)-6-(1H-pyrazol-4-yl)quinoline-3-carboxamide] | 1520 | 18.5 |
| CC(C)Nc1c(C(=O)NCCN2CCS(=O)(=O)CC2)cnc2ccc(-c3cn[nH]c3)cc12 [Example 94, N-(2-(1,1-dioxidothiomorpholino)ethyl)-4-(isopropylamino)-6-(1H-pyrazol-4-yl) quinoline-3-carboxamide] | 2240 | 9.5 |
| CC(C)Nc1c(C(=O)NCCCNS(C)(=O)=O)cnc2ccc(-c3cn[nH]c3)cc12 [Example 95, 4-(isopropylamino)-N-(3-(methylsulfonamido)propyl)-6-(1H-pyrazol-4-yl)quinoline-3-carboxamide] | 3220 | 10.5 |
| CC(C)Nc1c(C(=O)NCCC2CCCN2)cnc2ccc(-c3cn[nH]c3)cc12 (stereo not shown) [Example 96, 4-(isopropylamino)-6-(1H-pyrazol-4-yl)-N-(2-(pyrrolidin-2-yl)ethyl)quinoline-3-carboxamide] | 1280 | 11.4 |
| CC(C)Nc1c(C(=O)NCCC2CCNC2)cnc2ccc(-c3cn[nH]c3)cc12 (stereo not shown) [Example 97, 4-(isopropylamino)-6-(1H-pyrazol-4-yl)-N-(2-(pyrrolidin-3-yl)ethyl)quinoline-3-carboxamide] | 2080 | 9.7 |
| CC(C)Nc1c(C(=O)NCCc2cccnc2)cnc2ccc(-c3cn[nH]c3)cc12 [Example 98, 4-(isopropylamino)-6-(1H-pyrazol-4-yl)-N-(2-(pyridin-3-yl)ethyl)quinoline-3-carboxamide] | 607 | 4.2 |
| CC(C)Nc1c(C(=O)N[C@H]2CC[C@H](n3ccnn3)CC2)cnc2ccc(-c3cn[nH]c3)cc12 [Example 101, N-((1r,4r)-4-(1H-1,2,3-triazol-1-yl)cyclohexyl)-4-(isopropylamino)-6-(1H-pyrazol-4-yl)quinoline-3-carboxamide] | 447 | 4.1 |
| CC(C)Nc1c(C(=O)NCCCn2ccnc2)cnc2ccc(-c3cn[nH]c3)cc12 [Example 103, N-(3-(1H-imidazol-1-yl)propyl)-4-(isopropylamino)-6-(1H-pyrazol-4-yl)quinoline-3-carboxamide] | 2720 | 11 |
| CC(C)Nc1c(C(=O)NCC2CCS(=O)(=O)CC2)cnc2ccc(-c3cn[nH]c3)cc12 [Example 107, N-((1,1-dioxidotetrahydro-2H-thiopyran-4-yl)methyl)-4-(isopropylamino)-6-(1H-pyrazol-4-yl)quinoline-3-carboxamide] | 3770 | 21 |
| CC(C)Nc1c(C(=O)NCCc2ccncc2)cnc2ccc(-c3cn[nH]c3)cc12 [Example 109, 4-(isopropylamino)-6-(1H-pyrazol-4-yl)-N-(2-(pyridin-4-yl)ethyl)quinoline-3-carboxamide] | 2370 | 4.4 |

Reference: patent US12492186B2, “Bicyclic heterocyclic compounds useful as IRAK4 inhibitors” (BRISTOL-MYERS SQUIBB COMPANY, priority 2019, dated 2025)
